Consider 13 compounds from PubChem BioAssay (NCI).

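1) Cells in 96-well plates. 2) Compound, 48 h, 5 concentrations. 3) Linear interpolation between surrounding doses. 4) Unreached endpoint = highest concentration. GI50 = concentration required for 50% inhibition of growth. Definition used: TGI = concentration required for complete inhibition of growth.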

Some test systems named below: COLO 205 colon; HOP-92 NSCLC; OVCAR-8 ovarian; SK-MEL-28 melanoma; SN12C renal; SW-620 colon; UACC-62 melanoma; BT-549 breast; CCRF-CEM leukemia.
Assay in all cases: DTP human tumour cell line panel, 48 h

As usually defined, the GI50 is the concentration that inhibits growth by half. As a reminder, the TGI is the concentration at which net growth stops. For `O=C(/C=C(\[O-])c1ccccc1)CCCCCCC(=O)/C=C(\[O-])c1ccccc1.O=C(/C=C(\[O-])c1ccccc1)CCCCCCC(=O)/C=C(\[O-])c1ccccc1.O=C(/C=C(\[O-])c1ccccc1)CCCCCCC(=O)/C=C(\[O-])c1ccccc1.[Nd+3].[Nd+3]`, the GI50 in the assay with COLO 205 colon was over 50 µM; with HOP-92 NSCLC, 43.8 µM; in the assay on OVCAR-8 ovarian, over 50 µM; with SK-MEL-28 melanoma it was over 50 µM; in the assay with SN12C renal, over 50 µM; in the assay with SW-620 colon it was over 50 µM. In addition, the GI50 in the assay with UACC-62 melanoma was over 50 µM. The TGI with COLO 205 colon, in the assay with HOP-92 NSCLC, in the assay with OVCAR-8 ovarian, with SK-MEL-28 melanoma, with SN12C renal and in the assay with SW-620 colon was over 50 µM throughout. Also, in the assay on UACC-62 melanoma, the TGI was over 50 µM.
With `CN(C)c1ccc(N=C2C=CC(=C(C#N)C#N)c3ccccc32)cc1`, the concentration for total growth inhibition (TGI) was determined as 5.12 µM in the assay with BT-549 breast; 3.46 µM in the assay with CCRF-CEM leukemia; 0.199 µM in the assay on COLO 205 colon; 1.06 µM with HOP-92 NSCLC; 1.75 µM in the assay on OVCAR-8 ovarian; 20.5 µM in the assay on SK-MEL-28 melanoma. For the same compound, the total growth inhibition concentration (TGI) in the assay with SN12C renal was 15.9 µM; with SW-620 colon it was 3.65 µM; with UACC-62 melanoma, 3.32 µM.
For `COc1ccc(-c2cc(-c3ccco3)c(C#N)c(=O)[nH]2)cc1`, the TGI in the assay on CCRF-CEM leukemia, with COLO 205 colon, with HOP-92 NSCLC, in the assay with OVCAR-8 ovarian, in the assay with SK-MEL-28 melanoma and with SN12C renal was over 100 µM in each case. Besides, the concentration for total growth inhibition (TGI) with SW-620 colon and in the assay with UACC-62 melanoma was over 100 µM throughout.
Consider `NC(N)=N/N=C/c1c(-c2ccc(Cl)c([N+](=O)[O-])c2)nc2sc3ccccc3n12`, for which the GI50 in the assay with BT-549 breast is 0.895 µM; in the assay on COLO 205 colon, 0.98 µM; with OVCAR-8 ovarian, 1.19 µM; in the assay with SN12C renal it was 0.529 µM; with UACC-62 melanoma, 0.849 µM. Moreover, the total growth inhibition concentration (TGI) worked out at 2.12 µM in the assay on BT-549 breast, 2.76 µM with OVCAR-8 ovarian, 1.38 µM in the assay with SN12C renal and 1.58 µM in the assay on UACC-62 melanoma.
For the compound `Cc1nc(-n2nc(-c3ccccc3)cc2-c2ccccc2)sc1C(=O)/C=C/c1ccccc1`, the TGI in the assay with CCRF-CEM leukemia, in the assay on COLO 205 colon, in the assay on HOP-92 NSCLC, in the assay with OVCAR-8 ovarian, in the assay on SK-MEL-28 melanoma and in the assay with SN12C renal was over 100 µM throughout. Also, the total growth inhibition concentration (TGI) in the assay with SW-620 colon and with UACC-62 melanoma was over 100 µM throughout.
In the case of `O=C1CNN=C(Cn2nc(-c3ccccc3)c3ccccc3c2=O)N1`, the TGI in the assay with CCRF-CEM leukemia, in the assay on COLO 205 colon, with HOP-92 NSCLC, with OVCAR-8 ovarian, in the assay on SK-MEL-28 melanoma and with SN12C renal was over 100 µM throughout. For the same compound, the TGI with SW-620 colon and in the assay on UACC-62 melanoma was over 100 µM throughout.
Consider `COc1ccc(C(=O)O/N=C2/CCCCC2CN(C)C)cc1` (stereo not given), for which the concentration for total growth inhibition (TGI) in the assay with CCRF-CEM leukemia, in the assay with COLO 205 colon, with HOP-92 NSCLC, in the assay on OVCAR-8 ovarian, in the assay with SK-MEL-28 melanoma and in the assay on SN12C renal was over 100 µM in each case. Further, the TGI in the assay with SW-620 colon and in the assay on UACC-62 melanoma was over 100 µM each time.
On to `COC(=O)[C@]1(C)CCC[C@]2(C)[C@@H]1CCC13C[C@@H](C=CO1)[C@@H](C)CC32O` (stereo not given in full), for which the GI50 in the assay on BT-549 breast was over 100 µM; in the assay with COLO 205 colon, 64.4 µM; in the assay on HOP-92 NSCLC, 22 µM; with OVCAR-8 ovarian, over 100 µM; with SK-MEL-28 melanoma, over 100 µM; in the assay on SN12C renal it was over 100 µM. For the same compound, the GI50 in the assay with SW-620 colon and in the assay with UACC-62 melanoma was over 100 µM in each case. Also, the TGI in the assay with BT-549 breast, in the assay on COLO 205 colon, in the assay with HOP-92 NSCLC, in the assay with OVCAR-8 ovarian, with SK-MEL-28 melanoma and in the assay with SN12C renal was over 100 µM throughout. Besides, the total growth inhibition concentration (TGI) with SW-620 colon and with UACC-62 melanoma was over 100 µM throughout.
With `[Cl-].[Gd+3].[O-]/N=C(\c1ccccc1)c1ccccn1.[O-]/N=C(\c1ccccc1)c1ccccn1.[O-]/N=C(\c1ccccc1)c1ccccn1`, the GI50 in the assay with CCRF-CEM leukemia was 34.3 µM; in the assay with COLO 205 colon it was 47.2 µM; in the assay with HOP-92 NSCLC, over 100 µM; in the assay with OVCAR-8 ovarian, 34.3 µM; in the assay with SK-MEL-28 melanoma, 61.6 µM; in the assay with SN12C renal, 66.8 µM. In addition, the figures for the GI50 in the assay on SW-620 colon and in the assay with UACC-62 melanoma were 41.7 µM and 40.7 µM, respectively. For the same compound, the TGI with CCRF-CEM leukemia, with COLO 205 colon, in the assay on HOP-92 NSCLC, in the assay on OVCAR-8 ovarian, in the assay on SK-MEL-28 melanoma and in the assay with SN12C renal was over 100 µM each time. Also, the TGI in the assay on SW-620 colon and with UACC-62 melanoma was over 100 µM in each case.
For `CN(C)c1ccc(O[Si](Oc2ccc(N(C)C)cc2)(Oc2ccc(N(C)C)cc2)Oc2ccc(N(C)C)cc2)cc1`, the TGI with CCRF-CEM leukemia, in the assay on COLO 205 colon, with HOP-92 NSCLC, with OVCAR-8 ovarian, in the assay on SK-MEL-28 melanoma and in the assay on SN12C renal was over 100 µM throughout. Moreover, the TGI in the assay on SW-620 colon and with UACC-62 melanoma was over 100 µM in each case.
Regarding `COC(=O)c1sc(=NC(=S)N2CCCCC2)sc1C(=O)OC`, the TGI in the assay on CCRF-CEM leukemia, in the assay with COLO 205 colon, in the assay with OVCAR-8 ovarian, with SK-MEL-28 melanoma, with SN12C renal and in the assay on SW-620 colon was over 100 µM throughout. Further, the total growth inhibition concentration (TGI) in the assay with UACC-62 melanoma is over 100 µM.
`Nc1ccc(C(=O)/C=C/c2ccccc2O)cc1`: the total growth inhibition concentration (TGI) in the assay on CCRF-CEM leukemia, with COLO 205 colon, in the assay on OVCAR-8 ovarian, in the assay with SK-MEL-28 melanoma, in the assay on SN12C renal and in the assay on SW-620 colon was over 100 µM throughout. Also, in the assay with UACC-62 melanoma, the concentration for total growth inhibition (TGI) is over 100 µM.
Consider `COc1ccc2c(c1)[n+](=O)c(C(C)=O)c(C)n2[O-]`, for which the total growth inhibition concentration (TGI) in the assay on COLO 205 colon, in the assay with HOP-92 NSCLC, in the assay with OVCAR-8 ovarian, in the assay on SK-MEL-28 melanoma, in the assay on SN12C renal and in the assay on SW-620 colon was over 100 µM each time. The compound also had a concentration for total growth inhibition (TGI) in the assay on UACC-62 melanoma of over 100 µM.
